According to patent publication US20080312229A1, “Organic Compounds” (Novartis AG, priority 2005, published 2008):

Biological target: T1, human CRTh2 (Homo sapiens, UniProt Q9Y5Y4)
T1 construct: expressed in transfected cells; host or cells: CHO.K1 (Chinese Hamster Ovary) cells, membrane preparation
T1 sequence (Q9Y5Y4 1-395): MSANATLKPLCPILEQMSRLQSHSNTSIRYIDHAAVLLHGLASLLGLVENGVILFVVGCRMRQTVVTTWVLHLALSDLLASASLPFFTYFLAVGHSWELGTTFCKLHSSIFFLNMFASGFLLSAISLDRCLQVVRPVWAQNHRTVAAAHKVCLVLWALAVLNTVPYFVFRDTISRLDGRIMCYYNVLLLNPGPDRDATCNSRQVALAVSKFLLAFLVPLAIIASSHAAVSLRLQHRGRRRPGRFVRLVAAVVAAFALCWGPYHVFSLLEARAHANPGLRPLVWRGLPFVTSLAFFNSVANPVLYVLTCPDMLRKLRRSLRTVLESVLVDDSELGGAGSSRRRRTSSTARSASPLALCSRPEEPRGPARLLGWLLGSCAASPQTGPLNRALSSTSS
Test: CRTh2 [3H]-PGD2 binding assay (called SPA binding assay; filtration binding protocol described)
Settings: competition with [3H]-PGD2 (2.5 nM), CHO.K1-CRTh2 membranes
Method: The binding of CRTh2 modulators is determined using membranes prepared from human CRTh2-expressing Chinese Hamster Ovary cells (CHO.K1-CRTh2). To produce cell membranes CHO.K1-CRTh2 cells cultured in roller bottles are harvested using cell dissociation buffer (Invitrogen). The cells are pelleted by centrifugation (167 g, 5 min). The cell pellet is incubated in hypotonic buffer (15 mM Tris-OH, 2 mM MgCl2, 0.3 mM EDTA, 1 mM EGTA, 1× Complete™ tablet) at 4° C. for 30 min. At 4° C. cells are homogenized using a Polytron® (IKA Ultra Turrax T25) for 5 bursts of 1 second. The homogenate is centrifuged (Beckman Optima TM TL Ultracentrifuge, 48000 g, 30 min at 4° C.). […]
The binding of [^3H]-PGD2 (157 Ci/mmol) to CHO.K1-CRTh2 membranes is determined in the absence (total binding) and presence (non-specific binding) of unlabelled PGD2 (1 μM). […]
The plates are incubated at room temperature on a shaker for 1 hour, and then harvested (Tomtec Harvester 9600) onto GF/C filter plates using wash buffer (10 mM HEPES-KOH, pH 7.4). […] Plates are then counted using a Packard Top Count instrument, Plates are then read on the Packard Topcount with the 3H Scintillation program (1 min per well).
Ki (dissociation constant for the inhibition) values for the CRTh2 modulators are reported. Ki values are determined using Sigma Plot™ software, using the Cheng-Prussoff equation. […]

Ki: 716 nM
SMILES: Cc1c(CC(=O)O)c2cccnc2n1CCc1ccccc1 [Example 1, (2-Methyl-1-phenethyl-1H-pyrrolo[2,3-b]pyridine-3-yl)-acetic acid]
